# Test results as given in patent publication US20240000847A1, “METHODS” (bluebird bio, Inc., priority 2020, published 2024).
# Like-named read-outs stand apart in the source and are kept apart here.
# Experiments:
# bone marrow macrophages = details: mice; for F4/80+ macrophage staining in bone marrow smears (pathology): Ctx dosed at 2×100 mg/kg, FIG. 2B, 100 mg/kg; for F4/80+ macrophage staining in bone marrow smears (pathology) / activation status of macrophages recruited to the bone marrow (FcγRI signal): compared to vehicle; for activation status of macrophages recruited to the bone marrow (FcγRI signal): FIG. 2A bottom panel
# Method: Immunocompetent mice (C57Bl/6 or Balb/C) were dosed with vehicle of one of four different cyclophosphamide (Cytoxan) regimens including: one dose of 50 mg/kg, one dose of 100 mg/kg, two doses of 50 mg/kg approximately 48 hours apart, and two doses of 100 mg/kg approximately 48 hours apart. Three days following the final dose of the regimen, mouse bone marrow was evaluated for macrophage number and phenotype of. Flow cytometry was used to characterize bone marrow macrophages. Briefly, bone marrow was stained with murine macrophage markers including CD11b, F4/80, CD16 (FcγRIII; marker of activated macrophages), CD32 (FcγRII; inhibitory macrophage marker), CD68, and CD64 (FcγRI; marker of activated macrophages). In addition, bone marrow smears were prepared for pathology analysis and stained with F4/80 to quantify macrophages.
# [1] = system: hematopoietic stem cells (LSK: lineage negative, Sca1+, ckit+); details: mice, 8.3-25 mg/kg anti-CD117 and anti-CD47 antibodies, two doses of 50 mg/kg cyclophosphamide, vs vehicle or antibodies alone
# Method: In another experiment, immunocompetent mice (C57Bl/6 or Balb/C) were dosed with 8.3-25 mg/kg of anti-CD117 and anti-CD47 antibodies with or without two doses of 50 mg/kg of cyclophosphamide approximately 48 hours apart. Five to seven days after antibody treatment, mouse bone marrow was analyzed by flow cytometry or plated in methocellulose medium to evaluate impacts on the hematopoietic stem cells. […] FIG. 3.
compound,measurement,setting,value
O=P1(N(CCCl)CCCl)NCCCO1 (centres unmarked) [cyclophosphamide],increase of macrophage content in the bone marrow,"bone marrow macrophages; 1 or 2 doses of 50 or 100 mg/kg, three days after final dose, flow cytometry, FIG. 2A top panel",up to 2.5 fold
same,F4/80+ macrophage staining in bone marrow smears (pathology),bone marrow macrophages,increased macrophage staining
same,F4/80+ macrophage staining in bone marrow smears (pathology),bone marrow macrophages; listed as Cyclophosphamide,increase
same,macrophage recruitment in bone marrow compared to vehicle,bone marrow macrophages; FIG. 2A top panel,increased macrophage recruitment
same,activation status of macrophages recruited to the bone marrow (FcγRI signal),bone marrow macrophages,increased macrophage activation
same,activation status of macrophages recruited to the bone marrow (FcγRI signal),bone marrow macrophages; listed as Cyclophosphamide,enhanced activation status
same,depletion of stem cells (LSK) in the bone marrow,"[1]; 5-7 days after antibody, FIG. 3 left",enhanced the antibody-mediated depletion
same,number of colony forming cells (CFUs) from bone marrow,"[1]; methocellulose, FIG. 3 right",reduced the number of colony forming cells
